For `COc1ccc(Oc2ccc3c(c2)OCC(=O)N3)cc1` [Example 1, 7-(4-Methoxyphenoxy)-2H-1,4-benzoxazin-3(4H)-one], the melting point is 163 to 164 °C. The value for `O=C1COc2cc(Oc3ccc(O)cc3)ccc2N1` [Example 2, 7-(4-Hydroxyphenoxy)-2H-1,4-benzoxazin-3(4H)-one] was 250 to 251 °C. `Nc1ccc(Sc2ccc3c(c2)OCC(=O)N3)cc1` [Example 3, 7-[(4-Aminophenyl)sulfanyl]-2H-1,4-benzoxazin-3(4H)-one] gave a melting point of 232 to 234 °C. The value for `Nc1ccccc1Sc1ccc2c(c1)OCC(=O)N2` [Example 4, 7-[(2-Aminophenyl)sulfanyl]-2H-1,4-benzoxazin-3(4H)-one] was 204 to 205 °C; that for `Nc1cccc(Sc2ccc3c(c2)OCC(=O)N3)c1` [Example 5, 7-[(3-Aminophenyl)sulfanyl]-2H-1,4-benzoxazine-3(4H)-one] was 181 to 182 °C. Compound `O=C1COc2cc(Sc3ccc(O)cc3)ccc2N1` [Example 6, 7-[(4-Hydroxyphenyl)sulfanyl]-2H-1,4-benzoxazin-3(4H)-one] showed a melting point of 224 to 225 °C. The compound `COc1ccc(Sc2ccc3c(c2)OCC(=O)N3)cc1OC` [Example 7, 7-[(3,4-Dimethoxyphenyl)sulfanyl]-2H-1,4-benzoxazin-3(4H)-one] registered a melting point of 170 to 171 °C. As to `O=C1COc2cc(Sc3ccc(O)c(O)c3)ccc2N1` [Example 8, 7-[(3,4-Dihydroxyphenyl)sulfanyl]-2H-1,4-benzoxazin-3(4H)-one], the melting point was in the range of 236 to 238 °C. The value for `O=C1COc2cc(SCc3ccccc3)ccc2N1` [Example 9, 7-Benzylsulfanyl-2H-1,4-benzoxazin-3(4H)-one] was 154 to 155 °C; that for `O=C1COc2cc(SCc3ccc(O)cc3)ccc2N1` [Example 13, 7-(4-Hydroxybenzylsulfanyl)-2H-1,4-benzoxazin-3(4H)-one] was 207 to 209 °C. The compound `COc1ccc(Nc2ccc3c(c2)OCC(=O)N3)cc1` [Example 14, 7-(4-Methoxyanilino)-2H-1,4-benzoxazin-3(4H)-one] showed a melting point of 174 to 175 °C. Take `O=C1COc2cc(Nc3ccc(O)cc3)ccc2N1` [Example 15, 7-(4-Hydroxyanilino)-2H-1,4-benzoxazin-3(4H)-one]: the melting point lay within 270 to 275 °C.

Regarding `Nc1cccc(Oc2ccc3c(c2)OCC(=O)N3)c1` [Example 17, 7-(3-Aminophenoxy)-2H-1,4-benzoxazin-3(4H)-one], the melting point was in the range of 209 to 210 °C. On to `Nc1ccccc1Oc1ccc2c(c1)OCC(=O)N2` [Example 18, 7-(2-Aminophenoxy)-2H-1,4-benzoxazin-3(4H)-one], for which the melting point is 149 to 150 °C. With `CC(=O)Nc1ccc(Oc2ccc3c(c2)OCC(=O)N3)cc1` [Example 19, 7-(4-Acetylaminophenoxy)-2H-1,4-benzoxazin-3(4H)-one], the melting point is 230 to 232 °C.

The melting point is the temperature, or range, at which the solid turns liquid.

The values are drawn from patent US6951855B2, “Benzoxazinone derivatives for use in the treatment of angiogenesis” (AstraZeneca AB, priority 2001, dated 2005).
